This passage reports IC50 results from patent US6911443B2 (Bayer Aktiengesellschaft, priority 2000, dated 2005).

The target in the first experiment is T1, human Syk (GST-Syk) (Homo sapiens, UniProt P43405).
T1 construct: A cDNA fragment encoding human Syk openreading frame was cloned; made in house; host or cells: Sf21 insect cells (baculovirus, transfer vector pAcG2T)
Put plainly: Syk tyrosine kinase inhibitory assay. The experiment is classed as biochemical. Conditions: Table 11; read-out: Activity grade. An excerpt:
[Syk Tyrosine Kinase Inhibitory Assay]
(1) Preparation of Syk Protein
A cDNA fragment encoding human Syk openreading frame was cloned from total RNA of human Burkitt's lymphoma B cell lines, Raji (American Type Culture Collection), with the use of RT-PCR method. The cDNA fragment was inserted into pAcG2T (Pharmingen, San Diego, Calif.) to construct a baculovirus transfer vector. Then the vector, together with the linearized baculovirus (BaculoGold™, Pharmingen), was used to transfect Sf21 cells (Invitrogen, San Diego, Calif.).
Generated recombinant baculovirus was cloned and amplified in Sf21 cells. Sf21 cells were infected with this amplified high titer virus to produce a chimeric protein of Syk kinase fused by glutathione-S-transferase (GST).
The resulting GST-Syk was purified with the use of glutathione column (Amersham Pharmacia Biotech AB, Uppsala, Sweden) according to the manufacturer's instruction.
(2) Synthesize of a Peptide
Next, a peptide fragment of 30 residues including two tyrosine residues, […], was synthesized by a peptide synthesizer. The N-terminal of the fragment was then biotinylated to obtain biotinylated activation loop peptide (AL).
(3) The Measurement of Syk Tyrosine Kinase Activity
All reagents were diluted with the Syk kinase assay buffer (50 mM Tris-HCl (pH 8.0), 10 mM MgCl2, 0.1 mM Na3VO4, 0.1% BSA, 1 mM DTT). First, a mixture (35 μl) including […] of GST-Syk and 0.5 μg of AL was put in each well in 96-well plates. Then 5 μl of a test compound in the presence of 2.5% dimethylsulfoxide (DMSO) was added to each well. To this mixture was added […] (10 μl) to initiate the kinase reaction. The final reaction mixture (50 μl) consists of 0.65 nM GST-Syk, 3 μM AL, 30 μM ATP, a test compound, 0.25% DMSO, and a Syk kinase assay buffer.
The mixture was incubated for 1 hr at room temperature, and the reaction was terminated by the addition of 120 μl of termination buffer (50 mM Tris-HCl (pH 8.0), 10 mMEDTA, 500 mM NaCl, 0.1% BSA). The mixture was transferred to streptavidin-coated plates and incubated for 30 min at room temperature to combine biotin-AL to the plates. After washing the plates with Tris-buffered saline (TBS) (50 mM Tris-HCl (pH 8.0), 138 mM NaCl, 2.7 mM KCl) containing 0.05% Tween-20 for 3 times, 100 μl of antibody solution consisting of 50 mM Tris-HCl (pH 8.0), 138 mM NaCl, 2.7 mM KCl, 1% BSA, 60 ng/ml anti-phosphotyrosine monoclonal antibody, 4G10 (Upstate Biotechnology), which is labeled with europium by Amersham Pharmacia's kit in advance, was added and incubated at room temperature for 60 min. After washing, 100 μl of enhancement solution (Amersham pharmacia Biotech) was added and then time-resolved fluorescence was measured by multi-label counter ARVO (Wallac Oy, Finland) at 340 nm for excitation and 615 nm for emission with 400 msec of delay and 400 msec of window.
`COCCN(C)c1ccc(-c2cc3nccn3c(Nc3ccccc3S(C)(=O)=O)n2)cc1OC` [Example 12-44]: the IC50 was under 500 nM.
Same read-out and setting: the value for `COCCN(C)c1ccc(-c2cc3nccn3c(Nc3ccccc3)n2)cc1OC` [Example 12-41] was under 500 nM; that for `COCCN(C)c1ccc(-c2cc3nccn3c(Nc3ccc(C)cc3)n2)cc1OC` [Example 12-42] was under 500 nM.
On the same count and under the same terms, the value for `COCCN(C)c1ccc(-c2cc3nccn3c(Nc3ccc(OC)cc3)n2)cc1OC` [Example 12-51] was under 500 nM; that for `COc1ccc(Nc2nc(-c3ccc(OC)c(OC)c3)cc3ncnn23)cc1` [Example 12-15] was under 500 nM.
Same read-out and setting: the value for `COc1cc(-c2cc3nccn3c(Nc3ccc(C(F)(F)F)cc3)n2)ccc1N1CCOCC1` [Example 12-49] was under 500 nM; that for `COc1cc(-c2cc3nccn3c(Nc3ccccc3)n2)ccc1OCCN1CCOCC1` [Example 12-26] was under 500 nM.
For `CCOc1ccc2nc(Nc3nc(-c4ccc(OC)c(OC)c4)cc4nccn34)sc2c1` [Example 12-6], the IC50 lay in the range of 500 to 2000 nM.
Still for that read-out and setting: with `CCOCCOc1ccc(-c2cc3nccn3c(Nc3ccccc3)n2)cc1OCCOCC` [Example 12-24] the figure was 500 to 2000 nM; with `COc1ccc(-c2cc3nccn3c(Nc3ccccc3)n2)cc1OCCN1CCOCC1` [Example 12-25], under 500 nM.
On the same count and under the same terms, with `COc1ccc(-c2cc3nccn3c(Nc3ccccc3)n2)cc1OC(C)=O` [Example 12-17] the figure was under 500 nM.
On the same count and under the same terms, the value for `COCCCN(C)c1ccc(-c2cc3nccn3c(Nc3ccc(OC)cc3)n2)cc1OC` [Example 12-56] was under 500 nM; that for `COc1ccc(-c2cc3nccn3c(Nc3cccc(C(F)(F)F)c3)n2)cc1OC` [Example 12-13] was 500 to 2000 nM.

The same experiment, now with this note: Table 13; read-out: Activity grade.
Regarding `COc1ccc(-c2cc3nccn3c(Sc3ccc(CCC(=O)O)cc3C(N)=O)n2)cc1OC` [Example 14-35], the IC50 fell in the range of 500 to 2000 nM.
The same measure, in the same setting: with `c1ccc(Sc2nc(-c3ccccc3)cc3ncnn23)cc1` [Example 14-7] the figure was 2000 to 10000 nM; with `CCCSc1nc(-c2ccc(OC)c(OC)c2)cc2nccn12` [Example 14-17], under 500 nM; with `COc1ccc(-c2cc3nccn3c(SCC(F)(F)F)n2)cc1OC` [Example 14-16], under 500 nM.
Same read-out and setting: with `CCC(C)CSc1nc(-c2ccc(OC)c(OC)c2)cc2nccn12` (stereo not shown) [Example 14-23] the figure was 500 to 2000 nM.

The experiment is the same for the next values; noted with them: Table 16; read-out: Activity grade.
Turning to `CCSc1nc(-c2ccc(NCCCN3CCCC3=O)c(OC)c2)cc2nccn12` [Example 17-3], the IC50 is under 500 nM.

Staying with this experiment, now noted: Table 17; IC50 classes; read-out: Activity grade.
In the case of `COc1ccc(-c2cc3nccn3c(N(C(C)=O)c3ccccc3)n2)cc1OC(C)=O` [Example 10], the IC50 fell in the range of 2000 to 10000 nM.
On the same count and under the same terms, with `COc1ccc(-c2cc3nccn3c(Sc3ccc(CCC(=O)N4CCOCC4)cc3)n2)cc1OC` [Example 18] the figure was under 500 nM.
Same read-out and setting: with `COc1ccc(-c2cc3nccn3c(Nc3ccc(CC(N)C(=O)O)cc3)n2)cc1OC` (stereo not shown) [Example 30] the figure was under 500 nM; with `COc1ccc(-c2cc3nccn3c(N(C)c3ccncc3)n2)cc1OC` [Example 36], 2000 to 10000 nM.
On the same count and under the same terms, the value for `COc1ccc(-c2cc3nccn3c(Nc3ccccc3)n2)cc1NC(=O)CCC(=O)O` [Example 2] was under 500 nM.

The experiment is the same for the next values; noted with them: in vitro; compounds as yielded by solid phase synthesis, purity about 40 to 90%; read-out: Activity grade (IC50 class).
For `CCOC(=O)CCSc1nc(-c2ccc(OC)c(OC)c2)cc2nccn12` [Example 9-28], the IC50 is under 500 nM.
Consider `COc1ccc(-c2cc3nccn3c(N(C)c3ccc([N+](=O)[O-])cc3)n2)cc1OC` [Example 11-43], for which the IC50 is under 500 nM.
Still for that read-out and setting: the value for `COc1ccc(-c2cc3nccn3c(Nc3cccc(C(=N)N)c3)n2)cc1OC` [Example 11-66] was under 500 nM; that for `COc1ccc(-c2cc3nccn3c(N(C(C)=O)c3ccccc3)n2)cc1OC(C)=O` [Example 10] was under 500 nM.
Consider `COc1ccccc1Nc1nc(-c2ccc(OC)c(OC)c2)cc2nccn12` [Example 11-8], for which the IC50 is under 500 nM.
Still for that read-out and setting: the value for `COc1ccc(-c2cc3nccn3c(Nc3ccc(S(=O)(=O)NC(=N)N)cc3)n2)cc1OC` [Example 11-110] was under 500 nM; that for `COc1ccc(-c2cc3nccn3c(Nc3ccc(S(C)(=O)=O)cc3)n2)cc1OC` [Example 11-127] was under 500 nM; that for `CCSc1cc(-c2cccc([N+](=O)[O-])c2)cc2nccn12` [Example 8-6] was 500 to 2000 nM.
The same measure, in the same setting: the value for `COc1ccc(-c2cc3nccn3c(N3CCN(C(=O)c4ccco4)CC3)n2)cc1OC` [Example 9-46] was 2000 to 10000 nM.
Same read-out and setting: the value for `COc1ccc(-c2cc3ncnn3c(Nc3ccc4cn[nH]c4c3)n2)cc1OC` [Example 11-103] was under 500 nM; that for `COc1ccc(-c2cc3nccn3c(Nc3ccc(OC(C)C)cc3)n2)cc1OC` [Example 11-98] was under 500 nM; that for `CCSc1nc(-c2ccc(OC)c(OC(C)C)c2)cc2nccn12` [Example 4-3] was under 500 nM.
In the case of `COc1ccc(-c2cc3nccn3c(N3CCN(c4ccc(C(C)=O)cc4)CC3)n2)cc1OC` [Example 9-36], the IC50 fell in the range of 2000 to 10000 nM.
Take `CCSc1nc(-c2cccc(N)c2)cc2nccn12` [Example 8, 3-(5-Ethylsulfanyl-imidazo[1,2-c]pyrimidin-7-yl)-phenylamine]: the IC50 is under 500 nM.
The same measure, in the same setting: with `COc1ccc(-c2cc3nccn3c(Nc3ccc(/C=C/C(=O)OC(C)(C)C)cc3C(N)=O)n2)cc1OC` [Example 11-14] the figure was under 500 nM.
On the same count and under the same terms, the value for `COc1ccc(-c2cc3nccn3c(Nc3ccccc3S(C)(=O)=O)n2)cc1OC` [Example 11-119] was under 500 nM; that for `CCSc1nc(-c2ccc(OC3CCCCC3)c(OC)c2)cc2nccn12` [Example 3-6] was 500 to 2000 nM.
Still for that read-out and setting: with `COc1ccc(Nc2nc(-c3ccc(OC)c(OC)c3)cc3nccn23)cc1` [Example 11-17] the figure was under 500 nM.
Take `COc1ccc(-c2cc3ncnn3c(Nc3ccc(CCC(=O)O)cc3)n2)cc1OC` [Example 9-20]: the IC50 was under 500 nM.
On the same count and under the same terms, with `CCSc1nc(-c2ccc(OCC3CCCCO3)c(OC)c2)cc2nccn12` (stereo not shown) [Example 3-4] the figure was under 500 nM; with `COC(=O)[C@H](Cc1ccc(O)cc1)Nc1nc(-c2ccc(OC)c(OC)c2)cc2nccn12` [Example 9-2], 2000 to 10000 nM.
The same measure, in the same setting: the value for `CCSc1nc(-c2ccc(OC)c(OC(C)=O)c2)cc2nccn12` [Example 4-7] was under 500 nM.
Consider `COc1ccc(-c2cc3nccn3c(N(C)c3ccccc3OC)n2)cc1OC` [Example 11-25], for which the IC50 fell in the range of 500 to 2000 nM.
On the same count and under the same terms, with `COc1ccc(-c2cc3nccn3c(N(C)c3ccc(F)cc3F)n2)cc1OC` [Example 11-44] the figure was under 500 nM; with `COc1ccc(-c2cc3nccn3c(N3CCC(C#N)(c4ccccc4)CC3)n2)cc1OC` [Example 9-68], 2000 to 10000 nM; with `COc1ccc(-c2cc3nccn3c(Sc3c(Cl)cccc3Cl)n2)cc1OC` [Example 13-10], 500 to 2000 nM.
The same measure, in the same setting: the value for `COC(=O)[C@H](Cc1c[nH]c2ccccc12)Nc1nc(-c2ccc(OC)c(OC)c2)cc2nccn12` [Example 9-85] was 2000 to 10000 nM; that for `COc1ccc(-c2cc3ncnn3c(Nc3cccc(N)n3)n2)cc1OC` [Example 9-16] was under 500 nM.
Same read-out and setting: the value for `COC(=O)C(C)(C)Cc1ccc(Nc2nc(-c3ccc(OC)c(OC)c3)cc3nccn23)cc1` [Example 11-4] was under 500 nM; that for `COc1ccc(Nc2nc(-c3ccc(OC)c(OC)c3)cc3nccn23)c(C(N)=O)c1` [Example 11-96] was under 500 nM.
Consider `CCSc1nc(-c2ccc(C)c(S(=O)(=O)N3CCN(CCO)CC3)c2)cc2nccn12` [Example 2-1], for which the IC50 fell in the range of 500 to 2000 nM.
